Patent US8959984B2, “Proteome-wide quantification of small molecule binding to cellular target proteins” (priority 2007, dated 2015)
pKi: −log10 of the molar value.

How the values were obtained:
Experiment in all cases: binding to AX14596 beads (HeLa lysate, SILAC MS)
Set-up in all cases: endogenous in cells; host or cells: HeLa S3
RPL7A = RPL7A (Homo sapiens, UniProt P62424)
Experimental: (§1) Differentially SILAC-encoded cell lysates were either incubated with the inhibitor beads displaying immobilized AX14596 or control resin devoid of ligand. In parallel, the supernatant from the first binding step was subjected to a second incubation with the AX14596 resin (FIG. 4). The resulting three elution fractions were combined, resolved by gel electrophoresis, proteolytically digested and the relative abundance of the retained proteins quantified. Proteins showing considerable binding to the control resin were identified as non-specific interactors and therefore not considered further. […] These target-specific ratios were similar in “label switch” experiments (FIGS. 6a and 6c). The binding equilibrium was determined in parallel control SILAC experiments as well as the excess of the immobilized compound over its cellular targets, the excess preferably being a molar excess (FIG. 7 and FIG. 8).
(§2) Cysteine carbamidomethylation was set as a fixed modification and N-acetyl protein and oxidized methionine were allowed as variable modifications. Spectra that were determined to result from heavy labeled peptides in the pre-search detection of SILAC partners by MaxQuant were searched with the fixed modifications Lys^4, Lys^8, Arg^6 and Arg^10, whereas MS/MS spectra for which no SILAC state could be assigned before database searching were searched with Lys^4, Lys^8, Arg^6 and Arg^10 as variable modifications. The mass tolerance was set to 5 ppm for monoisotopic precursor ions and to 0.5 Da for MS/MS peaks. The minimum peptide length was set to 6 amino acids and up to three missed cleavages and three isotopically labeled amino acids were permitted per peptide. The accepted false discovery rate (FDR) was 1% for the proteins and peptides. The cut-off for the posterior error probability (PEP) of peptides was set to 10%. Peptide PEPs were determined by generating Mascot score and peptide-length-dependent histograms for both the forward and the reverse hits and then deriving the probability of a false identification for a given top-scoring peptide using Bayes' theorem. The PEPs of peptides belonging to the same proteins were then multiplied. Each peptide sequence was considered only once with the lowest PEP determined in case of multiple sequencing of the same isotopic pattern or of peptide species with different SILAC, charge or modification states. Proteins were then sorted according to their products of their peptide PEPs and included until a FDR of 1% was reached according to the fraction of reverse proteins contained in the protein list. In addition to the FDR threshold applied for protein identification, proteins were only included when they were identified with at least two peptides (of which one was required to be unique for the protein) and quantified if at least on quantifiable SILAC pair was associated with them. Outliers were not removed as protein ratios were calculated as the median instead of the average of all peptide ratios. For peptides shared among different identified proteins, SILAC ratios were only considered for the ratio of the protein identified with the highest number of unique peptides. Protein ratios for the different in vitro association experiments were corrected for the initial SILAC pooling ratio, which was determined from the median of protein ratios in pooled SILAC-encoded cell extracts.

MNK1 (MKNK1) = MNK1 (MKNK1) (Homo sapiens, UniProt Q9BUB5)
Experimental: as §1, §2

SPR = SPR (Homo sapiens, UniProt P35270)
Experimental: as §1, §2

RPL27A = RPL27A (Homo sapiens, UniProt P46776)
Experimental: as §1, §2

RPL7 = RPL7 (Homo sapiens, UniProt P18124)
Experimental: as §1, §2

CaMK2d (CAMK2D) = CaMK2d (CAMK2D) (Homo sapiens, UniProt Q13557)
Experimental: as §1, §2

NAMPT = NAMPT (Homo sapiens, UniProt P43490)
Experimental: as §1, §2

NUDT12 = NUDT12 (Homo sapiens, UniProt Q9BQG2)
Experimental: as §1, §2

SPR, sequence (P35270 whole entry): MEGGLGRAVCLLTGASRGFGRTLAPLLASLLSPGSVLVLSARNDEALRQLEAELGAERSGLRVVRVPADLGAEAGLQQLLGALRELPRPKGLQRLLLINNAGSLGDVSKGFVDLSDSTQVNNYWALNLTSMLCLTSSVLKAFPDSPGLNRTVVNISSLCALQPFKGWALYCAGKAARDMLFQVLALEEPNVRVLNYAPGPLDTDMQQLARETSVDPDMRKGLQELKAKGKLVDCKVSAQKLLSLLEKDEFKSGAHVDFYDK
CaMK2d (CAMK2D), sequence (Q13557 whole entry): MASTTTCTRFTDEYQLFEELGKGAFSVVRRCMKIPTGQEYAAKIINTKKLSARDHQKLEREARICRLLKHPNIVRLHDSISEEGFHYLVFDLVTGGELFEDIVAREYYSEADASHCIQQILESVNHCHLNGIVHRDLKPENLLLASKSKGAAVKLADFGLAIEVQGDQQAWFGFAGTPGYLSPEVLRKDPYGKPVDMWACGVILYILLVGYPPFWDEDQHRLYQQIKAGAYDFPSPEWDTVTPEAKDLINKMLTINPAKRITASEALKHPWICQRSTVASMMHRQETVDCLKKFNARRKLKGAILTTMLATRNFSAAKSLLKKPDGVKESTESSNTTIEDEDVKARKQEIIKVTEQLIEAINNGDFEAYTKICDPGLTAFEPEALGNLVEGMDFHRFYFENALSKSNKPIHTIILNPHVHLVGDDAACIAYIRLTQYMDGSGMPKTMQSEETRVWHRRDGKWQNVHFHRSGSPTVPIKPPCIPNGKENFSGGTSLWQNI
NAMPT, sequence (P43490 whole entry): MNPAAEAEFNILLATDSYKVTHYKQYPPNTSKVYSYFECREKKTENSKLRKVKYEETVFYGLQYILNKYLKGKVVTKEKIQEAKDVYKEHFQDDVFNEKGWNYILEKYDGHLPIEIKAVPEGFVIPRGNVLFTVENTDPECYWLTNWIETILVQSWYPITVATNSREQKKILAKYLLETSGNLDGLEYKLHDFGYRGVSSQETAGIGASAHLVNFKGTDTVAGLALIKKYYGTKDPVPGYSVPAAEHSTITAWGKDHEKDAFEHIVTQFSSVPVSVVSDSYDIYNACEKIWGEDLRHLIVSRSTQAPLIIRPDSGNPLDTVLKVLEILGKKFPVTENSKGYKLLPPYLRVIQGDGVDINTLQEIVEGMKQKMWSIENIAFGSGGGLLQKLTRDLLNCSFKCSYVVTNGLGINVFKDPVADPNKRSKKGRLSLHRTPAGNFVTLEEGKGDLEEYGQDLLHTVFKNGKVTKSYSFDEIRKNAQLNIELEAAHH
NUDT12, sequence (Q9BQG2 whole entry): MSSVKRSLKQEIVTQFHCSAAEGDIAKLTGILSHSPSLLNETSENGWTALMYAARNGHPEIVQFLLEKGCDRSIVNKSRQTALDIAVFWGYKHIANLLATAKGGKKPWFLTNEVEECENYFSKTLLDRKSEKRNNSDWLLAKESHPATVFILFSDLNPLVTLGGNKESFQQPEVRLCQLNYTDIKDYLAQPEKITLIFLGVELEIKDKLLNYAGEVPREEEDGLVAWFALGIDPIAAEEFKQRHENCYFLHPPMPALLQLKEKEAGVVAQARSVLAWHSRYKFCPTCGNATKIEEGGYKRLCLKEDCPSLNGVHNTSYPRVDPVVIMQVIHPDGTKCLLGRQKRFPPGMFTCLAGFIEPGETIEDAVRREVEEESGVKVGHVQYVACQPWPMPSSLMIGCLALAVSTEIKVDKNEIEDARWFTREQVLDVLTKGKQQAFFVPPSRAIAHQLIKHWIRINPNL
MNK1 (MKNK1), sequence (Q9BUB5 whole entry): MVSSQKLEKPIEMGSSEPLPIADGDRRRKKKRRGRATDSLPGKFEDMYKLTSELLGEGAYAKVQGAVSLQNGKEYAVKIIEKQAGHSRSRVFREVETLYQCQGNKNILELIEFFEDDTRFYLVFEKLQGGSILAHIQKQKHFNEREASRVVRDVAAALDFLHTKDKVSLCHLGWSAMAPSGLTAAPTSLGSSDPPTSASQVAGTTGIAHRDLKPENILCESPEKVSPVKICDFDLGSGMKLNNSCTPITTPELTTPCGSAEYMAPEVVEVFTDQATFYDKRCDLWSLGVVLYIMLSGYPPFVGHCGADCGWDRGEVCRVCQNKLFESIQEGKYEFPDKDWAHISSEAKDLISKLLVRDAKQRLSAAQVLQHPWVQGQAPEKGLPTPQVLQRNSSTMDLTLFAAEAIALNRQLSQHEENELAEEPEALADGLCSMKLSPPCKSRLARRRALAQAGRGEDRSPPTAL

COc1cc2ncnc(Nc3ccc(F)c(Cl)c3)c2cc1OCCCN [AX14596]
pKi (RPL7A): 2.68
r (3 mg/1 mg lysate) (RPL7A): 5.23
rAVERAGE (2. inc/1. inc) (RPL7A): 0.95
rAVERAGE (control/1. inc) (RPL7A): 0.17
pKi (MNK1 (MKNK1)): 3.04
r (3 mg/1 mg lysate) (MNK1 (MKNK1)): 2.94
r (5 h/2.5 h inc. time) (MNK1 (MKNK1)): 1.05
rAVERAGE (2. inc/1. inc) (MNK1 (MKNK1)): 0.90
rAVERAGE (control/1. inc) (MNK1 (MKNK1)): 0.04
pKi (SPR): 2.73
r (3 mg/1 mg lysate) (SPR): 2.91
r (5 h/2.5 h inc. time) (SPR): 2.43
rAVERAGE (2. inc/1. inc) (SPR): 0.95
rAVERAGE (control/1. inc) (SPR): 0.02
pKi (RPL27A): 2.53
r (3 mg/1 mg lysate) (RPL27A): 1.75
r (5 h/2.5 h inc. time) (RPL27A): 1.12
rAVERAGE (2. inc/1. inc) (RPL27A): 0.97
rAVERAGE (control/1. inc) (RPL27A): 0.06
pKi (RPL7): 2.64
r (3 mg/1 mg lysate) (RPL7): 1.82
rAVERAGE (2. inc/1. inc) (RPL7): 0.96
rAVERAGE (control/1. inc) (RPL7): 0.19
pKi (CaMK2d (CAMK2D)): 4.06
r (3 mg/1 mg lysate) (CaMK2d (CAMK2D)): 2.39
r (5 h/2.5 h inc. time) (CaMK2d (CAMK2D)): 1.13
rAVERAGE (2. inc/1. inc) (CaMK2d (CAMK2D)): 0.47
rAVERAGE (control/1. inc) (CaMK2d (CAMK2D)): 0.07
pKi (NAMPT): 4.39
r (3 mg/1 mg lysate) (NAMPT): 7.48
r (5 h/2.5 h inc. time) (NAMPT): 0.39
rAVERAGE (2. inc/1. inc) (NAMPT): 0.29
rAVERAGE (control/1. inc) (NAMPT): 0.04
pKi (NUDT12): 4.79
r (3 mg/1 mg lysate) (NUDT12): 2.24
r (5 h/2.5 h inc. time) (NUDT12): 0.91
rAVERAGE (2. inc/1. inc) (NUDT12): 0.14
rAVERAGE (control/1. inc) (NUDT12): 0.04
